Assay results: ChEMBL document CHEMBL5291721, “A preclinical secondary pharmacology resource illuminates target-adverse drug reaction associations of marketed drugs” (Nat Commun, 2023)

Tests used:
[1] = target: T1, Muscarinic acetylcholine receptor M1 (Homo sapiens, UniProt P11229); type: functional, cell-based
T1 sequence (P11229 whole entry): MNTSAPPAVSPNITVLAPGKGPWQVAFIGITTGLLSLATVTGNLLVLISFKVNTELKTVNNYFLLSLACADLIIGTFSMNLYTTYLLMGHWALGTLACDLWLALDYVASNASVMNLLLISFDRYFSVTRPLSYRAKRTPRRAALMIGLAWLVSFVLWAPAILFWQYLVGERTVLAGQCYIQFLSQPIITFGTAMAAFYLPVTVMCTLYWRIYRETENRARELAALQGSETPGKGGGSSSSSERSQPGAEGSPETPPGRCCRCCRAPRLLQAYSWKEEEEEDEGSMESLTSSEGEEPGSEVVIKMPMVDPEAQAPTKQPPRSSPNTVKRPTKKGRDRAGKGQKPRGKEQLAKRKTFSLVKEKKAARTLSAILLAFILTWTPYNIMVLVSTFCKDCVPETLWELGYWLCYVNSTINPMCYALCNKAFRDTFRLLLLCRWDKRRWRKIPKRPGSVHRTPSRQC

[2] = target: T1, Muscarinic acetylcholine receptor M1; type: functional, cell-based; remark: listed apart in the source
[3] = target: T2, 5-hydroxytryptamine receptor 1A (Homo sapiens, UniProt P08908); type: functional, cell-based
T2 sequence (P08908 whole entry): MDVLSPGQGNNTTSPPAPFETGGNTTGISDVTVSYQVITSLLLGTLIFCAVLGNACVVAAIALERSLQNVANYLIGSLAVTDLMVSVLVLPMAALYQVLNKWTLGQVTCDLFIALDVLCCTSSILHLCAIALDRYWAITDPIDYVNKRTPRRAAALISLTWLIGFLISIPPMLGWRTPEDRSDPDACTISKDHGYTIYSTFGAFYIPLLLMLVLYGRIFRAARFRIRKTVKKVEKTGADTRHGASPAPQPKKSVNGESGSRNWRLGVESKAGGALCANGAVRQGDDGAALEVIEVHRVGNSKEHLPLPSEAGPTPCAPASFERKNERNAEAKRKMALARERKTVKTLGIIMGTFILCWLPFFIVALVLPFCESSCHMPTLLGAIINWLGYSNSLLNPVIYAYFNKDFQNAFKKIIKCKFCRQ

[4] = target: T3, 5-hydroxytryptamine receptor 3A (Homo sapiens, UniProt P46098); type: functional
T3 sequence (P46098 whole entry): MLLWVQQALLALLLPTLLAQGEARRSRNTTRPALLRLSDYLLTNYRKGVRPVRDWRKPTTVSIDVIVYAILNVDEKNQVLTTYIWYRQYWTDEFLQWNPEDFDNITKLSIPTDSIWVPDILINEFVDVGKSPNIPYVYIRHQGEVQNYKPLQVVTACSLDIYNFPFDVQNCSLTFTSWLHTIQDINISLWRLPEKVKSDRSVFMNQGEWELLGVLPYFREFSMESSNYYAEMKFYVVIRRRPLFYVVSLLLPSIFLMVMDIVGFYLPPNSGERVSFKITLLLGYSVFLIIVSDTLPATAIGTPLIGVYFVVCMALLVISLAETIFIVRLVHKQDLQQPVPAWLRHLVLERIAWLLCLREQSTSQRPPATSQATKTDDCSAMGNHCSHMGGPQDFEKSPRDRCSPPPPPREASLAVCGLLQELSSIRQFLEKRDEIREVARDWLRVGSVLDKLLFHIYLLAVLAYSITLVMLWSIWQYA

[5] = target: T4, Prostaglandin G/H synthase 1 (Rattus norvegicus, UniProt Q63921); type: functional
T4 sequence (Q63921 whole entry): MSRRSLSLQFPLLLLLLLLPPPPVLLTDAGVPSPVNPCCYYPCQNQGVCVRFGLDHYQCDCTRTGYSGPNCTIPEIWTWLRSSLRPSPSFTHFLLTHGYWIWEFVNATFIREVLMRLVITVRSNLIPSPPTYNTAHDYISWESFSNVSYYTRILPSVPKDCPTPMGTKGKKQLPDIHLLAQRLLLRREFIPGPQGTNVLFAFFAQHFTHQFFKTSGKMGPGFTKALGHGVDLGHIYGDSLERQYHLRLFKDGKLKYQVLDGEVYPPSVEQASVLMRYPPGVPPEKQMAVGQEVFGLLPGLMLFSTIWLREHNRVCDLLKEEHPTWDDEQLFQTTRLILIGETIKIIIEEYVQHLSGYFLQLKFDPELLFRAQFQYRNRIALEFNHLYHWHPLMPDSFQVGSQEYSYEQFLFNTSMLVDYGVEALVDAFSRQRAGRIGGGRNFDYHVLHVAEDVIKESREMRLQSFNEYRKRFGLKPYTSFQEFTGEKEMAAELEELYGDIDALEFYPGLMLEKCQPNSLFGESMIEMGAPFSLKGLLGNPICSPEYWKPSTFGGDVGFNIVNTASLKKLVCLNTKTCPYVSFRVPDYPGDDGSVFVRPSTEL

Adenosine receptor A3 = target: T5, Adenosine receptor A3 (Homo sapiens, UniProt P0DMS8)
T5 sequence (P0DMS8 whole entry): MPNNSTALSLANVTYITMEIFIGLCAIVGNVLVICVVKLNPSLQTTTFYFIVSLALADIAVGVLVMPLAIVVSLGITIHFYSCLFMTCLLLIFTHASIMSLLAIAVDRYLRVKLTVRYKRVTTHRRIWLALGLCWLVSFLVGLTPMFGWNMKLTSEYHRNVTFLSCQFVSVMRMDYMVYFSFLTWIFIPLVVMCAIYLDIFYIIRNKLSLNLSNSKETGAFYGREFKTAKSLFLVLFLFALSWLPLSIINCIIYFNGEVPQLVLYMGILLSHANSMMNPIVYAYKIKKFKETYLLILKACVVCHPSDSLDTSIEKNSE

[6] = target: 3',5'-cyclic-AMP phosphodiesterase 4D (Homo sapiens, UniProt Q08499); type: functional
[7] = target: T6, 5-hydroxytryptamine receptor 2C (Homo sapiens, UniProt P28335)
T6 sequence (P28335 whole entry): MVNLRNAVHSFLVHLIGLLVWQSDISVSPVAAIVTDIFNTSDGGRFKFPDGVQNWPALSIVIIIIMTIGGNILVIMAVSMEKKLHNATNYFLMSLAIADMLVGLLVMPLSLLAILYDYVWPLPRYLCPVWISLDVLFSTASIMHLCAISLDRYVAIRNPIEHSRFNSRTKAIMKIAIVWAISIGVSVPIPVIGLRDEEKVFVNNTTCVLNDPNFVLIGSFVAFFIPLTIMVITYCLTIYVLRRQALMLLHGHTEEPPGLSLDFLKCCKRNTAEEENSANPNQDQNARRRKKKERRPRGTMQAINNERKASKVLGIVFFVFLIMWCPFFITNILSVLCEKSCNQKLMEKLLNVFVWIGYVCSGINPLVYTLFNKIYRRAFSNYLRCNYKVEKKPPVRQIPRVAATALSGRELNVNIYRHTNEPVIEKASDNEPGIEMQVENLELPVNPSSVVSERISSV

[8] = target: Neuronal acetylcholine receptor subunit alpha-4 (Homo sapiens, UniProt P43681)
Further: assay procedure not described here.

Chain of 3',5'-cyclic-AMP phosphodiesterase 4D (Q08499 whole entry): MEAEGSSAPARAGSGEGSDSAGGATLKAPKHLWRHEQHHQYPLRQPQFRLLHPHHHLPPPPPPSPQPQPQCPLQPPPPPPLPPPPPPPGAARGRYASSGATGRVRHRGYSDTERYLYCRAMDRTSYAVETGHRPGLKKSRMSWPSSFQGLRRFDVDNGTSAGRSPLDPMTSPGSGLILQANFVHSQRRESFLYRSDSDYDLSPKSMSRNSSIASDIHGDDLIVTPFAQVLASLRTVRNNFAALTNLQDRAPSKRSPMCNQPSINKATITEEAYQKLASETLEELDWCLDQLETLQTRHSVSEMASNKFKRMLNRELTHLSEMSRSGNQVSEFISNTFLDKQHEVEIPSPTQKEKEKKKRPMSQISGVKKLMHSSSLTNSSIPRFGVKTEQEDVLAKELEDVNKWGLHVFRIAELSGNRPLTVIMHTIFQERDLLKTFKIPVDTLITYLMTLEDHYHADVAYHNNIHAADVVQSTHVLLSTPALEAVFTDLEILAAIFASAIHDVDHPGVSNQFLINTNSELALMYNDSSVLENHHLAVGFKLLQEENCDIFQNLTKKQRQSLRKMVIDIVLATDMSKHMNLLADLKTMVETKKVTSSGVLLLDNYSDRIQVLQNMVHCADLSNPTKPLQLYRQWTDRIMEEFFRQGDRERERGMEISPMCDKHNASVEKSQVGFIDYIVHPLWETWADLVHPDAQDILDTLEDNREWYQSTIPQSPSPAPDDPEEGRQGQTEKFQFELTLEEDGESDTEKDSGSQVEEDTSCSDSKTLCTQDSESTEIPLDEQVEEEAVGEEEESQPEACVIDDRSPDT
Chain of Neuronal acetylcholine receptor subunit alpha-4 (P43681 whole entry): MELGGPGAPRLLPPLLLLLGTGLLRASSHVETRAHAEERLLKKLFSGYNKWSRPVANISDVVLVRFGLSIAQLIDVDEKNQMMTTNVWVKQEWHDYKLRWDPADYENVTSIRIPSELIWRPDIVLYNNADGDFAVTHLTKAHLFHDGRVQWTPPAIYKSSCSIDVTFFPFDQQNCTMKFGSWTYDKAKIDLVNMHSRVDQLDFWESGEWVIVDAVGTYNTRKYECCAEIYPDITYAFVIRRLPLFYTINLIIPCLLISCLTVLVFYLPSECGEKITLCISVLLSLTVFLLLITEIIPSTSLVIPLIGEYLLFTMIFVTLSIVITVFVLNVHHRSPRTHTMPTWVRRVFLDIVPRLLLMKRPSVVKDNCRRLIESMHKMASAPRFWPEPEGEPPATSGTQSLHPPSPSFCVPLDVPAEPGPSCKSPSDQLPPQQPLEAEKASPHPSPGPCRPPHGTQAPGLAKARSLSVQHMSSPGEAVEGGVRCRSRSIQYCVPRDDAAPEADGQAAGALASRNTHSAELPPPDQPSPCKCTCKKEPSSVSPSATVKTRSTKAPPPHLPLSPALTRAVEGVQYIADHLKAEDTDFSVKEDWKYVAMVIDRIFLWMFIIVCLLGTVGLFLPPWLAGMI

`CC(C)N(CCNC(=O)CN1CCCC1=O)C(C)C` was tested, and the AC50 [1] was > 30 µM and the AC50 [2] was > 30 µM.

For `Cc1cc(N)c2ccccc2[n+]1CCCCCCCCCC[n+]1c(C)cc(N)c2ccccc21`, the AC50 [1] was > 30 µM and the AC50 [2] was 0.611 µM.

In the case of `CCOC(=O)[C@H](CCc1ccccc1)N[C@@H](C)C(=O)N(CC(=O)O)C1Cc2ccccc2C1`, the AC50 [1] is reported as > 30 µM and the AC50 [2] is reported as > 30 µM.

For `C=CCSCC1Nc2cc(Cl)c(S(N)(=O)=O)cc2S(=O)(=O)N1` (stereo not drawn) [ALTHIAZIDE], the AC50 [1] was > 30 µM and the AC50 [2] was > 30 µM.

`CCN(CCCc1ccccc1)CCCc1ccccc1` [ALVERINE] was tested, and the AC50 [1] was > 30 µM and the AC50 [2] was 0.198 µM.

With `COc1cc(N2CCC(N3CCN(C)CC3)CC2)ccc1Nc1ncc(Cl)c(Nc2ccccc2P(C)(C)=O)n1` [BRIGATINIB] the AC50 [1] was > 30 µM and the AC50 [2] was > 30 µM.

For `CN(C)CCOC(c1ccccc1)c1ccc(Br)cc1` (stereo not drawn) [BROMODIPHENHYDRAMINE], the AC50 [1] was > 30 µM and the AC50 [2] was 1.49 µM.

In the case of `NC(=O)OCC(O)COc1ccc(Cl)cc1` (stereo not drawn) [CHLORPHENESIN CARBAMATE], the AC50 [1] is reported as > 30 µM and the AC50 [2] is reported as > 30 µM.

`CCN(CC)C(=S)S` [DITIOCARB] was tested, and the AC50 [1] was > 30 µM and the AC50 [2] was > 1 µM.

`CCC(=O)O[C@]1(C(=O)SCF)[C@H](C)C[C@H]2[C@@H]3C[C@H](F)C4=CC(=O)C=C[C@]4(C)[C@@]3(F)[C@@H](O)C[C@@]21C` [FLUTICASONE PROPIONATE] was tested, and the AC50 [3] was > 30 µM, the AC50 [4] was > 30 µM and the AC50 [5] was > 30 µM. The AC50 (Adenosine receptor A3) was > 30 µM, the AC50 [1] was > 30 µM and the AC50 [2] was > 30 µM. The AC50 [6] was > 30 µM, the AC50 [7] was > 30 µM and the AC50 [8] was > 30 µM.

In the case of `CCC(=O)O[C@]1(C(=O)CCl)[C@@H](C)C[C@H]2[C@@H]3C[C@H](F)C4=CC(=O)C=C[C@]4(C)[C@@]3(F)[C@@H](O)C[C@@]21C` [HALOBETASOL PROPIONATE], the AC50 [1] is reported as > 30 µM and the AC50 [2] is reported as 14.9 µM.

`CC(N)Cc1ccc(O)cc1` (stereo not drawn) [HYDROXYAMPHETAMINE] was tested, and the AC50 [1] was > 30 µM and the AC50 [2] was > 30 µM.

For `Cc1cc(NC(=O)C2=C(O)c3ccccc3S(=O)(=O)N2C)no1` [ISOXICAM], the AC50 [1] was > 30 µM and the AC50 [2] was > 30 µM.

In the case of `COc1cc2c(cc1OC)CC(=O)N(CCCN(C)C[C@H]1Cc3cc(OC)c(OC)cc31)CC2` [IVABRADINE], the AC50 [1] is reported as > 30 µM and the AC50 [2] is reported as > 30 µM.

For `CN1CCN(C2=Nc3ccccc3Oc3ccc(Cl)cc32)CC1` [LOXAPINE], the AC50 [3] was > 10 µM, the AC50 [4] was 0.38 µM and the AC50 [5] was > 30 µM. The AC50 (Adenosine receptor A3) was > 30 µM, the AC50 [1] was > 30 µM and the AC50 [7] was 0.029 µM. For the same compound, the AC50 [8] was > 10 µM.

In the case of `CN1C(=O)/C(=N\NC(N)=S)c2ccccc21` [METHISAZONE], the AC50 [1] is reported as 26.4 µM and the AC50 [2] is reported as > 3 µM.

For `CCCc1nc(C(C)(C)O)c(C(=O)O)n1Cc1ccc(-c2ccccc2-c2nnn[nH]2)cc1` [OLMESARTAN], the AC50 [1] was > 30 µM and the AC50 [2] was > 30 µM.

In the case of `NCC(CC(=O)O)c1ccccc1` (stereo not drawn) [PHENIBUT], the AC50 [1] is reported as > 30 µM and the AC50 [2] is reported as > 30 µM.

With `CC[C@@H]([C@H](C)O)n1ncn(-c2ccc(N3CCN(c4ccc(OC[C@@H]5CO[C@@](Cn6cncn6)(c6ccc(F)cc6F)C5)cc4)CC3)cc2)c1=O` [POSACONAZOLE] the AC50 [5] was > 30 µM, the AC50 (Adenosine receptor A3) was > 30 µM and the AC50 [1] was > 30 µM. The AC50 [2] was > 1 µM and the AC50 [6] was > 30 µM.

With `Cc1ncc(COP(=O)(O)O)c(C=O)c1O` [PYRIDOXAL PHOSPHATE ANHYDROUS] the AC50 [1] was > 30 µM and the AC50 [2] was > 30 µM.

For `c1ccc2c(c1)CCc1ccccc1N2C1CN2CCC1CC2` (stereo not drawn) [QUINUPRAMINE], the AC50 [1] was > 30 µM and the AC50 [2] was 0.0076 µM.

In the case of `C[C@H](Cc1cc2c(c(C(N)=O)c1)N(CCCO)CC2)NCCOc1ccccc1OCC(F)(F)F` [SILODOSIN], the AC50 [1] is reported as > 30 µM and the AC50 [2] is reported as > 30 µM.

For `CC1=CCC(C(C)(C)O)CC1O` (stereo not drawn) [SOBREROL], the AC50 [1] was > 30 µM and the AC50 [2] was > 30 µM.

With `CCOC(=O)N1CSC[C@H]1C(=O)O` [TELMESTEINE] the AC50 [1] was > 30 µM and the AC50 [2] was > 30 µM.
